According to patent publication US4053632A, “Compounds of spiro-amine type and methods for their use” (priority 1971, dated 1977):
“Also recorded” adds a separate entry of the source. Read-outs that look alike come from different tables or passages of the source.

Tests used:
[1] = test system: uptake of 5-HT (midbrain slices); test: Inhibition of the uptake of tritiated 5-HT in vitro (brain slices); format: biochemical, mouse
[2] = test system: uptake of noradrenaline (cortex slices); test: Inhibition of the uptake of tritiated noradrenaline in vitro (brain slices); format: biochemical; details: dl-noradrenaline 10^-7 M
[3] = test system: uptake of 5-HT (midbrain slices); test: Inhibition of the uptake of tritiated 5-HT in vivo; set-up: species or system mouse; details: for ED50: Mus musculus, ip, 0.5 h, i.p., in vivo, read-out: Inhibition (50 %) of uptake in vivo, 5-HT
Description: The drugs were administered intraperitoneally half an hour before the animals were killed and the midbrain was taken out and sliced and incubated in a mixture consisting of, per 100 mg of brain slices, 0.2 μmole of ^3 H-5-HT and 1 μmole of glucose in 2 ml of Krebs-Henseleit buffer, pH 7.4. The incubation time was 5 minutes with 5 minutes of preincubation before ^3 H-5-HT was added. The radioactive ^3 H-5-HT taken up in the slices was extracted with ethanol and the amount was determined by liquid scintillation. The dose producing 50 per cent decrease of the active uptake (ED50) was determined graphically from dose response curves. Active uptake is defined as that part of the radioactive uptake which is inhibited by a high concentration of cocaine. All doses were given at least to four animals.

[4] = test system: uptake of noradrenaline (cortex slices); test: Inhibition of the uptake of tritiated noradrenaline in vivo; details: ip, read-out: Inhibition (50 %) of uptake in vivo, NA
Description: The animals were killed half or one hour after the administration of the drugs in vivo (i.p.). The slices, made from cortex, were preincubated for five minutes and incubated with 0.1 μmole per ml of ^3 H-noradrenaline for further five minutes. The incubation mixture consisted of 0.2 μmole of ^3 H-NA and the brain slices in 2 ml of Krebs-Henseleits buffer, pH 7.4. The radioactive ^3 H-NA taken up in the slices was extracted with ethanol and the amount was determined by liquid scintillation. The dose producing 50 per cent decrease of the active uptake (ED50) was determined graphically from dose response curves. At least four animals were used at each dose level.

[5] = test system: motor activity; test: Motor activity in mice; format: in vivo, mouse; details: for ED50: Mus musculus, 1 h
Description: The exploratory activity of mice was recorded in a locomotion cage in which the movements were counted each time the animals cross-circuits on electrical current in the bottom plate. […] The animals were tested individually. Groups of six mice were used and the mice were only used once. The activity was expressed in percent of the activity of control groups ran simultaneously.
Sedative activity was defined as suppression of normal motor activity. The motor activity in mice was automatically recorded in a locomotion cage in which the movements are counted each time the animal short-circuits an electrical current in the bottom plate. […] The animals were tested individually. Groups of six mice were used. The activity was expressed in percent of the activity of control groups run simultaneously.

[6] = test system: DA turnover / dopamine receptor; test: Estimation of DA receptor blockade (DA turnover) in the rat brain; format: in vivo; details: for effect on DA turnover: in words; for minimal effective dose: ip, read-out: first significant dose, effect on brain dopamine level
Source text: (§1) The estimation of catecholamine (CA) turnover was made by using the tyrosine hydroxylase inhibitor α-methyl tyrosine methyl ester (H 44/68) (4). This technique is based on the assumption that dopamine (DA) or noradrenaline (NA) receptor blockade will mediate an increase in CA turnover and result in lowered CA levels in the brain compared to H 44/68 alone. Since DA receptor blockade is assumed to be a biochemical correlate to antipsychotic action, this test gives a biochemical evidence for an antipsychotic effect. In this particular test the DA and NA levels in the brain were measured biochemically (5,6).

[7] = test system: NA turnover / noradrenaline receptor; test: Estimation of NA receptor blockade (NA turnover) in the rat brain; format: in vivo; details: for minimal effective dose: ip, read-out: first significant dose, effect on brain noradrenaline level
Source text: as §1

[8] = test system: conditioned avoidance response (CAR); test: Conditioned avoidance response in rats; format: in vivo, rat; details: for ED50: Rattus norvegicus, ip, 1 h, i.p.
Description: For this reason the conditioned avoidance test has been developed for initial screening of neuroleptics. Rats were trained to avoid electrical shock by jumping from one compartment to the other in a shuttle box. The conditioned stimulus consists of an auditory signal which after eight seconds was followed by the electrical shock. The rates were trained to a criterion of making eight out of ten responses correctly. The drugs were injected one hour before the test. The avoidance responses are expressed in percentage of those before administration. CD50 is the dose which reduces the avoidance response to 50% of control values.

[9] = test system: methamphetamine induced hyperactivity; test: Antagonism of methamphetamine-induced hyperactivity; format: in vivo, mouse; details: mice, FIG. 1, in words
Description: Sedatives (e.g. barbiturates, benzodiazepines and propandiols) on the other hand generally potentiate the induced hyperactivity. The interaction with amphetamines consequently gives an indication of the mechanism of a drug. Male mice were pretreated with the test drug 30 minutes before the administration of methamphetamine 3 mg/kg i.p. After 20 minutes the spontaneous motor activity was measured for 20 minutes by an Animex activity meter, which can distinguish between slight and considerable motion. The animals were tested in groups of three and used only once. Control groups treated with saline alone or the test drug and saline according to the testing schedule were run simultaneously.

[10] = Catalepsy; format: in vivo
Source text: (§2) Using the method and intensity scaring system described by Costall and Naylar, (7), the cataleptic properties of SIR 109 and chloropromazine were studied. Briefly, an animal was classed as cataleptic if it remained in an abnormal position for 15 seconds. Additionally, the duration the animal held this position was converted to a numerical scare as an indication of the intensity of the catalepsy.

[11] = test system: catalepsy; test: Catalepsy; format: in vivo; details: rat
Source text: as §2

[12] = test system: aggressive behavior; test: Aggressive behavior (anti-aggressive test) in isolated mice; format: in vivo, mouse; details: for ED50: Mus musculus, ip, 1 h, read-out: Anti-aggresive test ED50; for effect on aggressive behavior: in words
Description: Anxiolytic effect was defined as a block of aggressive behavior in mice. Male mice kept isolated for 3 weeks or longer develop an aggressive behaviour when caged together. The method used followed that reported by Valzelli et al. (8) with the exception that two mice were tested together. The aggressiveness was scored during a five minute test according to the following scale:
0: the animals show no interest in each other except occasional nosing,
[…]: frequent vigorous nosing and tail twitching. The animals assume a fighting position and occasionally attack the partner -- no more than 3-4 times in the period of five minutes,
50: tail twitching, powerful attacks -- no more than 10 times during the test period,
75: the animals pursue their partners, attacking and biting for most of the time,
100: attacks over the entire period.
Controls administered with the solvent were tested. […] The animals were used for several experiments but with intervals of at least one week. Groups of 10 mice were used, and they were tested one hour after the administration of the drug. The animals were used as their own controls.

[13] = test system: mice; test: Behavioral observation (ptosis, catatonia) in mice; format: in vivo, mouse
[14] = test system: pupil width (mydriasis); details: mouse, in vivo
Description: (§3) The compounds were given by intravenous route to 3 mice. […] Seizures, gait, sedation and grip strength were recorded.
(§4) Acute toxicity was tested by the intraveneous, intraperitoneal and oral routes of administration. […] During the oral route a behavioral scoring system was used in order to relate changes in behavior to dose. The LD50 values were determined graphically from log dose -- response curves based on four doses with three animals per dose. Peripheral parasympatholytic effect was tested in mice by observing the mydriatic effect after intravenous injection (9) (four doses with three animals per dose). PD200 refers to the dose which increases the pupil width by 200%.

[15] = in vivo; details: mouse
Description: as §3, §4

[16] = test system: mice; test: Acute toxicity in mice; details: in words
Description: as §3, §4

[17] = test system: 5-HTP response; test: 5-HTP response potentiation test; format: in vivo, mouse; details: Mus musculus, ip
Description: These small movements are quantitatively measured in an activity box, type Animex, which can distinguish between small and gross movements. The activity is measured during 20 minutes and only in the case the animals have a fullblown syndrome.

[18] = test system: l-Dopa response; test: Dopa response potentiation test; format: in vivo, mouse; details: Mus musculus, ip; read-out: Potentiation of l-Dopa, effective dose
Description: This test is developed by G.M. Everett (Antidepressant drugs,[…] in groups of 3 are pretreated with Pargyline ®40 l mg/kg p.o. about 10-16 hours before the test. […] 1. piloerection, slight salivation, slight increased motor activity 2. piloerection, salivation, marked increased motor activity and irritability 3. piloerection, profuse salivation, marked irritability and reactivity, jumping, squeaking, fighting.

[19] = test system: rabbits; test: Drug induced arrhythmias in rabbits; format: in vivo, rabbit
Source text: Test drugs were intravenously administered to male rabbits anesthesized wth amytal. The doses were increased stepwise up to the lethal dose and the first dose which induced arrhythmia was noted.

[20] = test system: conditioned avoidance response (CAR); details: general knowledge, in words; cited from earlier work
[21] = mice, read-out: Motor activity ID50
[22] = rat, after H 44/68 250 mg/kg i.p.

CN(C)C1C=CC2(CC1)c1ccccc1CCc1ccc(Cl)cc12 (racemic) [SIR 109, 3'-chloro-10', 11'-dihydro-4-(dimethylamino)spiro[2-cyclohexene-1,5'(5'H)-dibenzo[a,d]cycloheptene]]
Inhibition (50 %) of uptake in vitro, 5-HT [1]: 1.3 µg/mL | Inhibition (50 %) of uptake in vitro, NA [2]: 1.5 µg/mL | ED50 [3]: > 40 mg/kg | ED50 [4]: 40 mg/kg | ED50 [5, 21]: 5 mg/kg | ED50 ([5]; ip, i.p., mice, read-out: Motor activity ID50 (Table 4)): 5 mg/kg | sedation / tranquilizing effect ([5]; in words): tranquilizing effect of the compound; also recorded: strongly sedative or tranquilizing | sedation (motor activity) versus CPZ ([5]; mice, in words): caused sedation in the mice at about the same dose as CPZ; also recorded: about as potent as chlorpromazine | effect on DA turnover [6]: effects DA turnover at about the same dose; also recorded: about as potent as chlorpromazine | minimal effective dose [6, 22]: 5 mg/kg | effect on NA turnover / selectivity versus DA turnover ([7]; in words): seems to be more selective than chlorpromazine since it influences NA turnover first at higher doses; also recorded: more selective compound than chlorpromazine since it affects NA turnover first at higher doses | minimal effective dose [7, 22]: 10 to 15 mg/kg | ED50 ([8]; rat, read-out: CAR CD50): 7.5 to 10 mg/kg | ED50 ([8]; read-out: CAR ED50 (Table 4)): 7.5 to 10 mg/kg | effect on conditioned avoidance response ([8]; rat, in words): somewhat less active than chlorpromazine; also recorded: about as potent as chlorpromazine | block of methamphetamine induced hyperactivity [9]: blocked methamphetamine induced hyperactivity in mice; also recorded: about as potent as chlorpromazine | ED50 ([10]; in vivo, ip, rat): 25 mg/kg | Catalepsy intensity score [11]: 0.75 | cataleptic effect ([11]; in words): weak cataleptic effect in the rat; also recorded: intensity of catalepsy was considerably lower after SIR 109 compared to CPZ; also recorded: low cataleptic action | ED50 ([12]; i.p., mice): 0.27 mg/kg | effect on aggressive behavior ([12]; mice): potent at a dose which does not cause sedation; also recorded: strong effect of SIR 109 on aggressive behavior at non-sedative doses | threshold dose for ptosis ([13]; mouse, in vivo): 31 mg/kg | catatonic state ([13]; mouse, in vivo, po): did not cause any catatonic state | peripheral (parasympatholytic) effects [14]: weak peripheral effects | PD200 (Table 4) ([14]; iv, 10 min): > 40 mg/kg | LD50 at 24 h ([15]; ip): 185 mg/kg | LD50 at 24 h ([15]; iv): 40 mg/kg | LD50 at 24 h ([15]; po): 250 mg/kg | acute toxicity versus CPZ [16]: considerably less toxic than CPZ both after i.v., i.p. and oral administration in the mice; also recorded: considerably less toxic after acute administration

NC1C=CC2(CC1)c1ccccc1C=Cc1ccccc12 (stereo not shown) [CPG 186]
Inhibition (50 %) of uptake in vitro, 5-HT [1]: > 10 µg/mL | Inhibition (50 %) of uptake in vitro, NA [2]: 1.5 µg/mL | ED50 [3]: 28 mg/kg | blocking the uptake of 5-HT in vivo versus imipramine ([3]; in words): blocks the uptake of 5-HT in equivalent doses | ED50 [4]: 14 mg/kg | minimal effective dose [17]: 25 mg/kg | minimal effective dose [18]: > 10 mg/kg | ED50 [5, 21]: > 50 mg/kg | sedation / tranquilizing effect ([5]; in words): gave sedation only in high doses | arrhythmia in rabbits ([19]; nonlethal doses, in words): did not cause arrhythmia in nonlethal doses in rabbits | Arrythmia (rabbit), accumulated i.v. dose where there are signs of arrythmia ([19]; rabbit, in vivo, iv): > 10 | anticholinergic effects [14]: devoid of the anticholinergic effects | Peripheral anti-cholinergic action PD200 ([14]; iv, 10 min): > 25 mg/kg | LD50 at 24 h ([15]; iv): 25 mg/kg

CN(C)CCCN1c2ccccc2Sc2ccc(Cl)cc21 [Chlorpromazine, reference compound]
minimal effective dose ([6]; Rattus norvegicus): 5 mg/kg | effect on DA turnover [6]: effects DA turnover at about the same dose | minimal effective dose ([7]; Rattus norvegicus): 5 mg/kg | ED50 ([8]; read-out: CAR ED50 (Table 4)): 5 mg/kg | block of methamphetamine induced hyperactivity [9]: blocked methamphetamine induced hyperactivity in mice | ED50 ([10]; rat, in vivo, ip): 7 mg/kg | Catalepsy intensity score ([11]; in vivo): 1.0 | ED50 [12]: 2 mg/kg | effect on aggressive behavior ([12]; mice): effective first at sedative doses | threshold dose for ptosis ([13]; mice): 4 mg/kg | dose from which catatonic state was prominent ([13]; orally, mouse): ≥ 31 mg/kg | inhibition of learned responses [20]: inhibit many different types of learned responses | LD50 at 24 h ([15]; ip): 92 mg/kg | LD50 at 24 h ([15]; iv): 26 mg/kg | LD50 at 24 h ([15]; po): 190 mg/kg
